The values below come from patent publication US20110212199A1, “AGENT FOR TREATING EYE DISEASES” (priority 2003, published 2011).

Each structure is given as a SMILES string. A value given as a limit tells only on which side of the number the result lay.

Assay [1] has as its system intraocular pressure of house rabbit. The assay is described as follows: Effects on intraocular pressure (animal experiment). The class given is in vivo, colored house rabbits. As for the experimental part: For the experiments, five (10 eyes) colored house rabbits (body weight: 1.8 to 2 kg) with 8 months to 10 months from the birth were used. […] Intraocular pressure of the house rabbit before treating with eye drops/eye washes was 14 mmHg at 1 PM. […] The maximum dropping of the intraocular pressure appeared after 50 minutes from washing. Lowering effects of intraocular pressure continued at least up to after 5 hours from washing. […] This house rabbit was immediately washed again with the same eye drops/eye washes, intraocular pressure was lowered up to 13 mmHg after 45 minutes from washing. The house rabbit subjected to eye drops/eye washes treatment was allowed to stand, and intraocular pressure was measured next day at 9 AM, it was 18 mmHg, and the effects of eye drops/eye washes at the previous day remained. […] The effects of administration can be found to be continued for a long time.

The test system of assay [2] is Posner-Schlossmans' Syndrome. As to the kind of experiment: Example 21: Posner-Schlossmans' Syndrome. The class given is in vivo, human.

Turning to `C[C@]12CC[C@@H]3c4ccc(O)cc4CC[C@H]3[C@@H]1CC[C@@H]2O` [17β-estradiol], the intraocular pressure was found to be 10 mmHg in assay [1] (25 μl (1 drop) of 100 mg/l at 1 PM, after 3.5 hours, before 14 mmHg); 13 mmHg in assay [1] (high-pressure eye, 45 minutes after second washing); 18 mmHg in assay [1] (high-pressure eye, next day 9 AM, before further administration); 12 mmHg in assay [1] (high-pressure eye, second day, 1 hour 50 minutes after third 25 μl drop); 13 mmHg in assay [1] (high-pressure eye, second day, 3 hours 15 minutes after 25 μl drop); 13 mmHg in assay [1] (high-pressure eye, second day, 3 hours 15 minutes after second 25 μl drop). Moreover, the intraocular pressure in assay [1] (high-pressure eye, third day 3:15 PM) was 12 mmHg; in assay [1] (high-pressure eye, third day 6 PM) it was 11 mmHg; in assay [1] (high-pressure eye, third day 9 AM before administration), 10 mmHg; in assay [1] (high-pressure eye, third day noon, 3 hours after 25 μl drop), 9 mmHg; in assay [1] (rabbit with one high-pressure eye, 24 mmHg before, 15 minutes after washing at 5 PM), 15 mmHg. In assay [1] (after 25 μl drop at 1 PM), the “time the intraocular pressure effect continued” value is at least 5 h. In addition, the “time the lowering effect of intraocular pressure continued” value in assay [1] (after washing) was at least 5 h. The “time of maximum dropping of intraocular pressure” value in assay [1] (after washing with 100 mg/l eye washes at 1 PM) worked out at 50 min. Besides, in assay [2] (after 1 week), the iritis result is listed as “iritis disappeared”. Besides, the “intraocular pressure Tos” value in assay [2] (patient, left eye, 1 mg/l, 1 drop (50 μl) once a day for 1 week, before 36) is reported as 17 mmHg.
